Among the data in patent US20200078468A1, “NEUROTENSIN RECEPTOR BINDING CONJUGATES AND FORMULATIONS THEREOF” (priority 2016, published 2020) are IC50 values, retold here.

The subject of this test is SW48 (human colon cancer cells). Nature of the test: inhibition of SW48 cell proliferation (CellTiter Glo). The class given is cell-based. Particulars: 72 hrs, read-out: SW-48 proliferation IC50. As for the experimental part:
Conjugates were assessed in an in vitro assay evaluating inhibition of cell proliferation. SW48 (human colon cancer cells, ATCC®), cells were plated in 96 well, flat-bottomed plates (Costar) at a concentration of 5,000 cells/well. Cells were then incubated at 37° C. with 5% CO2 for 24 hrs. After 24 hrs, cells were treated with 0.01% DMSO or compound. Compounds were added at a starting dose of 10 μM and three fold serial dilutions were done for a total often points. Following compound addition, cells were incubated at 37° C. with 5% CO2 for 72 hrs. Proliferation was measured by CellTiter Glo reagent using the standard protocol (Promega) and a Glomax multi+detection system (Promega). Percent proliferation inhibition was calculated using the following formula: % inhibition=(control−treatment)/control*100. Control is defined as vehicle alone. IC50 curves were generated using the nonlinear regression analysis (four parameter) with GraphPad Prism 6.
Conjugates are assessed for receptor-dependent cytotoxicity by the difference between an NTSR1-targeting conjugate, and the corresponding conjugate with the same linker moiety and active agent where the NTSR1-targeting domain has been scrambled.
(In general: ATP-based viability assays read luminescence as a measure of living cells.)

Read-outs that look alike come from different tables or passages of the source. Numbered stars: 1 amine (or outer) side, 2 acyl side, 3 side chain; on linkers, the order of the positions; unused ones are H or OH. Bridge positions count the residues as written; N and C are the ends. Square brackets hold non-standard residues; d marks the D form. Peptide text beside a SMILES is read from it. I, II: the chains in the order shown. * marks the point of attachment. SN38(20-O) = CCc1c2c(nc3ccc(O)cc13)-c1cc3c(c(=O)n1C2)COC(=O)[C@@]3(CC)O*; Hexanoyl(6-succinimido-3yl) = O=C1CC([*:1])C(=O)N1CCCCCC(=O)[*:2]; NMeR = CN[C@@H](CCCNC(=N)N)C(=O)O; Pen = CC(C)(S)[C@H](N)C(=O)O; Tle = CC(C)(C)[C@H](N)C(=O)O

`CC[C@H](C)[C@@H]([C@@H](CC(=O)N1CCC[C@H]1[C@H](OC)[C@@H](C)C(=O)N[C@H](C)[C@@H](O)c1ccccc1)OC)N(C)C(=O)[C@@H](NC(=O)[C@H](C(C)C)N(C)C(=O)OCc1ccc(NC(=O)[C@H](CCCNC(N)=O)NC(=O)[C@@H](NC(=O)CCCCCN2C(=O)CC(SCCC(=O)NCCOCCOCCC(=O)NCCCC[C@H](NC(C)=O)C(=O)N3CCC[C@H]3C(=O)N[C@@H](CC(C)C)C(=O)N3CCC[C@H]3C(=O)N(C)[C@@H](CCCNC(=N)N)C(=O)N[C@H](C(=O)N[C@@H](CCCNC(=N)N)C(=O)N[C@@H](Cc3ccc(O)cc3)C(=O)O)C(C)(C)C)C2=O)C(C)C)cc1)C(C)C` (stereo partly shown) [Compound 94]: for the setting “NTSR1 scrambled compound”, the IC50 came out at 52.5 nM. Turning to `CO[C@H]1C(=O)[C@]2(C)[C@@H](OC)C[C@H]3OC[C@@]3(OC(C)=O)[C@H]2[C@H](OC(=O)c2ccccc2)[C@]2(O)C[C@H](OC(=O)[C@H](OC(=O)N(C)CCN(C)C(=O)OCc3ccc(NC(=O)[C@H](CCCNC(N)=O)NC(=O)[C@@H](NC(=O)CCCCCN4C(=O)CC(SC(C)(C)[C@H](NC(C)=O)C(=O)N5CCC[C@H]5C(=O)N[C@@H](CCCNC(=N)N)C(=O)N(C)[C@@H](CCCNC(=N)N)C(=O)N5CCC[C@H]5C(=O)N[C@@H](Cc5ccc(O)cc5)C(=O)N[C@H](C(=O)N[C@@H](CC(C)C)C(=O)O)C(C)(C)C)C4=O)C(C)C)cc3)[C@@H](NC(=O)OC(C)(C)C)c3ccccc3)C(C)=C1C2(C)C` (stereo partly shown) [Compound 6], for the setting “NTSR1 targeted compound”, the IC50 was 2240 nM. Take `CO[C@H]1C(=O)[C@]2(C)[C@@H](OC)C[C@H]3OC[C@@]3(OC(C)=O)[C@H]2[C@H](OC(=O)c2ccccc2)[C@]2(O)C[C@H](OC(=O)[C@H](OC(=O)N(C)CCCNC(=O)CNC(=O)[C@H](CC(C)C)NC(=O)[C@H](Cc3ccccc3)NC(=O)CNC(=O)CCCCCN3C(=O)CC(SCCC(=O)NCCCC[C@H](NC(C)=O)C(=O)N4CCC[C@H]4C(=O)N[C@@H](CC(C)C)C(=O)N4CCC[C@H]4C(=O)N(C)[C@@H](CCCNC(=N)N)C(=O)N[C@H](C(=O)N[C@@H](CCCNC(=N)N)C(=O)N[C@@H](Cc4ccc(O)cc4)C(=O)O)C(C)(C)C)C3=O)[C@@H](NC(=O)OC(C)(C)C)c3ccccc3)C(C)=C1C2(C)C` (stereo partly shown) [Compound 74]: the IC50 (NTSR1 scrambled compound) was more than 10000 nM. Consider `CCc1c2c(nc3ccc(O)cc13)-c1cc3c(c(=O)n1C2)COC(=O)[C@@]3(CC)OC(=O)CNC(=O)CNC(=O)[C@H](CC(C)C)NC(=O)[C@H](Cc1ccccc1)NC(=O)CNC(=O)CCCCCN1C(=O)CC(SC(C)(C)[C@H](NC(C)=O)C(=O)N2CCC[C@H]2C(=O)N[C@@H](CCCNC(=N)N)C(=O)N(C)[C@@H](CCCNC(=N)N)C(=O)N2CCC[C@H]2C(=O)N[C@@H](Cc2ccc(O)cc2)C(=O)N[C@H](C(=O)N[C@@H](CC(C)C)C(=O)O)C(C)(C)C)C1=O` (stereo partly drawn) [Compound 66] (I: Ac-[Pen]PR[NMeR]PY[Tle]L-OH / II: GFLGG-{SN38(20-O)}; linker I:1-II:N via Hexanoyl(6-succinimido-3yl)), for which, where the note is “NTSR1 targeted compound”, the IC50 was 694 nM. For `COc1cc2cc(c1Cl)N(C)C(=O)C[C@H](OC(=O)[C@H](C)N(C)C(=O)CCSC1CC(=O)N(CCCNC(=O)CNC(=O)[C@H](CC(C)C)NC(=O)[C@H](Cc3ccccc3)NC(=O)CNC(=O)CCCCCN3C(=O)CC(SCCC(=O)NCCCC[C@H](NC(C)=O)C(=O)N4CCC[C@H]4C(=O)N(C)[C@@H](CCCNC(=N)N)C(=O)N[C@@H](CCCNC(=N)N)C(=O)N4CCC[C@H]4C(=O)N[C@@H](Cc4ccc(O)cc4)C(=O)N[C@H](C(=O)N[C@@H](CC(C)C)C(=O)O)C(C)(C)C)C3=O)C1=O)[C@]1(C)O[C@H]1[C@H](C)[C@@H]1C[C@@](O)(NC(=O)O1)[C@H](OC)/C=C/C=C(\C)C2` (stereo partly shown) [Compound 23], the IC50 (NTSR1 targeted compound) was found to be 38.6 nM. Still for that read-out and setting: in the case of `COc1cc2cc(c1Cl)N(C)C(=O)C[C@H](OC(=O)[C@H](C)N(C)C(=O)CCSC1CC(=O)N(CCCNC(=O)CNC(=O)[C@H](CC(C)C)NC(=O)[C@H](Cc3ccccc3)NC(=O)CNC(=O)CCCCCN3C(=O)CC(SCCC(=O)NCCOCCOCCC(=O)NCCCC[C@H](NC(C)=O)C(=O)N4CCC[C@H]4C(=O)N(C)[C@@H](CCCNC(=N)N)C(=O)N[C@@H](CCCNC(=N)N)C(=O)N4CCC[C@H]4C(=O)N[C@@H](Cc4ccc(O)cc4)C(=O)N[C@H](C(=O)N[C@@H](CC(C)C)C(=O)O)C(C)(C)C)C3=O)C1=O)[C@]1(C)O[C@H]1[C@H](C)[C@@H]1C[C@@](O)(NC(=O)O1)[C@H](OC)/C=C/C=C(\C)C2` (stereo partly shown) [Compound 24] it was 2 nM; in that of `CCc1c2c(nc3ccc(O)cc13)-c1cc3c(c(=O)n1C2)COC(=O)[C@@]3(CC)OC(=O)CNC(=O)CNC(=O)[C@H](CC(C)C)NC(=O)[C@H](Cc1ccccc1)NC(=O)CNC(=O)CCCCCN1C(=O)CC(SC(C)(C)[C@H](NC(C)=O)C(=O)N2CCC[C@H]2C(=O)N[C@@H](CCCCN)C(=O)N[C@@H](CCCNC(=N)N)C(=O)N2CCC[C@H]2C(=O)N[C@@H](Cc2ccc(O)cc2)C(=O)N[C@H](C(=O)N[C@@H](CC(C)C)C(=O)O)C(C)(C)C)C1=O` (stereo partly drawn) [Compound 68] (I: Ac-[Pen]PKRPY[Tle]L-OH / II: GFLGG-{SN38(20-O)}; linker I:1-II:N via Hexanoyl(6-succinimido-3yl)), 800 nM. With `COc1cc2cc(c1Cl)N(C)C(=O)C[C@H](OC(=O)[C@H](C)N(C)C(=O)CCSC1CC(=O)N(CCCNC(=O)CNC(=O)[C@H](CC(C)C)NC(=O)[C@H](Cc3ccccc3)NC(=O)CNC(=O)CCCCCN3C(=O)CC(SCCC(=O)NCCOCCOCCOCCOCCC(=O)NCCCC[C@H](NC(C)=O)C(=O)N4CCC[C@H]4C(=O)N[C@@H](CC(C)C)C(=O)N4CCC[C@H]4C(=O)N(C)[C@@H](CCCNC(=N)N)C(=O)N[C@H](C(=O)N[C@@H](CCCNC(=N)N)C(=O)N[C@@H](Cc4ccc(O)cc4)C(=O)O)C(C)(C)C)C3=O)C1=O)[C@]1(C)O[C@H]1[C@H](C)[C@@H]1C[C@@](O)(NC(=O)O1)[C@H](OC)/C=C/C=C(\C)C2` (stereo partly shown) [Compound 84], the IC50 (NTSR1 scrambled compound) turned out to be 48.5 nM. On to `COc1cc2cc(c1Cl)N(C)C(=O)C[C@H](OC(=O)[C@H](C)N(C)C(=O)CCSC1CC(=O)N(CCCNC(=O)CNC(=O)[C@H](CC(C)C)NC(=O)[C@H](Cc3ccccc3)NC(=O)CNC(=O)CCCCCN3C(=O)CC(SCCC(=O)NCCOCCOCCOCCOCCOCCOCCOCCOCCC(=O)NCCCC[C@H](NC(C)=O)C(=O)N4CCC[C@H]4C(=O)N(C)[C@@H](CCCNC(=N)N)C(=O)N[C@@H](CCCNC(=N)N)C(=O)N4CCC[C@H]4C(=O)N[C@@H](Cc4ccc(O)cc4)C(=O)N[C@H](C(=O)N[C@@H](CC(C)C)C(=O)O)C(C)(C)C)C3=O)C1=O)[C@]1(C)O[C@H]1[C@H](C)[C@@H]1C[C@@](O)(NC(=O)O1)[C@H](OC)/C=C/C=C(\C)C2` (stereo partly shown) [Compound 26], for which the IC50 (NTSR1 targeted compound) is 5 nM. With `COc1cc2cc(c1Cl)N(C)C(=O)C[C@H](OC(=O)[C@H](C)N(C)C(=O)CCSC1CC(=O)N(CCCNC(=O)CNC(=O)[C@H](CC(C)C)NC(=O)[C@H](Cc3ccccc3)NC(=O)CNC(=O)CCCCCN3C(=O)CC(SCCC(=O)NCCOCCOCCC(=O)NCCCC[C@H](NC(C)=O)C(=O)N4CCC[C@H]4C(=O)N[C@@H](CC(C)C)C(=O)N4CCC[C@H]4C(=O)N(C)[C@@H](CCCNC(=N)N)C(=O)N[C@H](C(=O)N[C@@H](CCCNC(=N)N)C(=O)N[C@@H](Cc4ccc(O)cc4)C(=O)O)C(C)(C)C)C3=O)C1=O)[C@]1(C)O[C@H]1[C@H](C)[C@@H]1C[C@@](O)(NC(=O)O1)[C@H](OC)/C=C/C=C(\C)C2` (stereo partly shown) [Compound 83], the IC50 (NTSR1 scrambled compound) was determined as 1830 nM.
